Consider four compounds from US4239780A, “Phospholipase A2 inhibition” (The Upjohn Company, priority 1979, dated 1980).

Structures can show the parent of a compound that is named as a salt.

One test concerns the target phospholipase A2 (Naja naja, UniProt P15445). The note with it: cited from earlier work.
In test [1] the target is T1, HUMAN PLATELET PHOSPHOLIPASE A2 (Homo sapiens, UniProt P47712).
T1 construct: Human blood was drawn from an antecubital vein into 3.8% sodium citrate; endogenous in cells; host or cells: human platelets in citrated plasma (PRP)
T1 sequence (P47712 1-749): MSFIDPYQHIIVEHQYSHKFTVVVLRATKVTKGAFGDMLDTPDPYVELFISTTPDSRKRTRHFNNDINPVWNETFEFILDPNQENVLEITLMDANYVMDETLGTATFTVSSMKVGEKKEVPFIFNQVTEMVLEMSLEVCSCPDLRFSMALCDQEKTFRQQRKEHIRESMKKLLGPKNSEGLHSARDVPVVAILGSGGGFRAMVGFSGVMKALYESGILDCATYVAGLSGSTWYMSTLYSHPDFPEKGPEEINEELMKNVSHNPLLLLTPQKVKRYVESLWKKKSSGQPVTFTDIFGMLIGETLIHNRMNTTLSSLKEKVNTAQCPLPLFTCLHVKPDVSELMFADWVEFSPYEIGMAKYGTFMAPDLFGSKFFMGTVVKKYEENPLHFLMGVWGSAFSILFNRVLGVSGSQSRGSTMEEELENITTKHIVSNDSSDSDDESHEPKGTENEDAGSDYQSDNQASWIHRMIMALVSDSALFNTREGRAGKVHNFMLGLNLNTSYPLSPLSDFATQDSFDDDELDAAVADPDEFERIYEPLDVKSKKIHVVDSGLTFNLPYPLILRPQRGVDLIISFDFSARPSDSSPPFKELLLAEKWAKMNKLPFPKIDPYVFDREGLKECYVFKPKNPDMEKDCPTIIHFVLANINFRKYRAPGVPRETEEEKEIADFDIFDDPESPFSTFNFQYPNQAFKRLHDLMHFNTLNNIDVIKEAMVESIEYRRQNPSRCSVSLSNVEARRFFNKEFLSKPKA
Description: inhibition of collagen-induced aggregation of human platelets. The note with it: human platelet rich plasma, read-out: I50 collagen (converted). Type of test: cell-based. As for the experimental part:
The compounds of the present invention were tested for their ability to inhibit collagen-induced aggregation of platelets at 100 μg. per ml. or less. The compounds that were active against collagen-induced aggregation were tested at the I50 dose against arachidonic acid-induced aggregation. Compounds that inhibited collagen-induced aggregation, but not arachidonic acid-induced aggregation, were reported as active phospholipase A2 inhibitors.
The test was run as follows. Human blood was drawn from an antecubital vein into 3.8% sodium citrate with the final citrate concentration being 0.38%. The blood was transferred to plastic centrifuge tubes and centrifuged at 200×g for 10 min. This yielded […] (PRP). This PRP was allowed to stand for 30 min. for testing at which point it was tested against 400 μg. per ml. of arachidonic acid. […] If the platelets aggregated to arachidonic acid, a dose of collagen that gave a substantial irreversible aggregation (approximately 60-80% transmission) was established. It was then attempted to block the response of collagen with 10 μg. per ml. of indomethacin. […] The ID50 for all unknown compounds was then established. Most of the compounds were tested at rather high concentrations and it was often necessary to place the compound in ethanol into the aggregation cuvet and evaporate the ethanol before testing.
Those that were reported as active were tested at the ID50 dose against 400 μg per ml. of arachidonic acid. […] The compounds are shown to inhibit phospholipase A2 from humans at low dosages.

For test [2], the target named is SNAKE VENOM PHOSPHOLIPASE A2. The test can be described thus: coupled phospholipase A2 / soybean lipoxygenase oxygen consumption assay, snake venom enzyme. The note with it: estimated I50 calculated from a partial inhibition value, pH 8.5, 37° C. Type of test: biochemical.
Test [3] concerns the target T2, HOG PANCREAS PHOSPHOLIPASE A2 (Sus scrofa, UniProt P00592).
T2 construct: from tissue; host or cells: hog pancreas
Description: coupled phospholipase A2 / soybean lipoxygenase oxygen consumption assay, hog pancreas enzyme. Type of test: biochemical. The note with it: estimated I50 calculated from a partial inhibition value, pH 8.5, 37° C.

The target of test [4] is BEE VENOM PHOSPHOLIPASE A2 (Apis mellifera, UniProt P00630). Description: biochemical. The note with it: pH 8.5, 37° C.
Sequence of UniProt P00630 (P00630 34-167 limits assumed): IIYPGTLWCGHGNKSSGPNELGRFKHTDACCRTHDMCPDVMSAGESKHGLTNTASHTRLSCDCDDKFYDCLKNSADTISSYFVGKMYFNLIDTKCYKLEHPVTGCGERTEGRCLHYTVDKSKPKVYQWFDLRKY
The test system of another test is UV induced erythema. Description: UV induced erythema on the skin of guinea pigs. It is filed as in vivo, guinea pig. The following applies: for erythema score, 1 hour / erythema score, 2 hours / erythema score, 3 hours / erythema score, 4 hours / erythema score, 24 hours: aggregate score for 3 animals; for erythema score, (After 4 hours) Total Points / erythema score, (After 24 hours) Total Points: aggregate for 3 animals. How it is done: Some of the compounds of this invention were tested in vivo for their ability to inhibit the effects of UV induced erythema on the skin of guinea pigs. This is an example of an inflammatory process fulfilling the four pathological requirements of "rubor, calor, dolor, and tumor" i.e., reddening, heat, pain, and edematious swelling in the skin. Administration of the compounds of this invention to guinea pigs whose skin was subsequently exposed to ultraviolet light markedly retarded and in some cases eliminated altogether this inflammatory process. Administration of the compounds of this invention was performed both interparenterally and subcutaneously with equivalent results, thereby eliminating any possiblity of reduction in erthyma due to the so called "counter irritant" effect on the serosal soft surface of the gut.
The test was carried out as follows: Guinea pigs of the Hartley strain ranging in weight from 250 to 750 gm. were clipped with coarse and fine clippers to remove as much hair as possible from the back or abdomen. They were then treated with a commercial depilatory for six to seven min. after which they were washed with warm water. The animals were then injected I.P. or subcutaneously with solutions or suspensions of the test compounds made up at 0.02 molar concentrations. The dose was 0.3 ml. per 100 gm. of body weight. A control (untreated) group was also maintained. The animals were then held for 30 min. before being exposed as rapidly as possible to ultra-violet light using a Kromayer lamp for 30 sec. A scoring system was developed to quantitate the erythema. The scoring was from 0 to 5 and is described as follows:
0=no apparent reddening of the skin
0.5=some slight reddening, without a definite border
1.0=a discrete pink circle with a definite border
2.0=a discrete circle of redness with a definite border more intense than 1.0
3.0=same circle with still greater intensity
4.0=same circle with a near maximal response but without any raising of the erythematous spot above the level of the surrounding skin
5.0=a raised edematous circle with the redness at maximal intensity
The animals were scored at hourly intervals for the first four hours. The erythema reached a maximum at this time in the control animals. The major difference between results at 4 hr. and those at 24 is the developement of edema and this occurred in some of the animals treated with phospholipase inhibitors without erythema being present. The results of this test are shown in tabular form in Tables VI and VII. The aggregate scores of the animals treated with the designated compounds are recorded at hourly intervals and compared with the control (untreated) scores. As shown by the tables, the method of this invention markedly retarded UV-induced erythema.

The target of test [5] is phospholipase A2 from venom of bee (Apis mellifera, UniProt P00630). The following applies: enzyme from bee venom; cited from earlier work.
Sequence of phospholipase A2 from venom of bee (P00630 34-167 limits assumed): as above
The target in test [6] is phospholipase A2 from venom of Crotalus Adamanteus (Crotalus adamanteus, UniProt P00623). The note with it: enzyme from Crotalus Adamanteus venom; cited from earlier work.
Sequence of phospholipase A2 from venom of Crotalus Adamanteus (P00623 17-138 limits assumed): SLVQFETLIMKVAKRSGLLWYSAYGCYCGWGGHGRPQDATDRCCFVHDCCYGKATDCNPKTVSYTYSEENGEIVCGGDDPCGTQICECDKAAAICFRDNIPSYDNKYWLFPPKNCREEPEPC
For test [7], the system named is phospholipase A2 of rabbit polymorphonuclear leukocytes. The following applies: cited from earlier work.
Test [8] has as its target T3, phospholipase A2 from pig pancreas (Sus scrofa, UniProt P00592).
T3 construct: host or cells: pig pancreas
The following applies: enzyme from pig pancreas; cited from earlier work.

In test [9] the test system is phospholipase A2 derived from perfused guinea pig lung. The note with it: enzyme derived from perfused guinea pig lung; cited from earlier work.

T2 sequence (P00592 23-146): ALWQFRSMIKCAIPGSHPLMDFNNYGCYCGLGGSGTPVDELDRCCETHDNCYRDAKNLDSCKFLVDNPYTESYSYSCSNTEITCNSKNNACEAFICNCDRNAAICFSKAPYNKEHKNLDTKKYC
T3 sequence (P00592 23-146): as above
Sequence of phospholipase A2 (P15445 whole entry, looked up): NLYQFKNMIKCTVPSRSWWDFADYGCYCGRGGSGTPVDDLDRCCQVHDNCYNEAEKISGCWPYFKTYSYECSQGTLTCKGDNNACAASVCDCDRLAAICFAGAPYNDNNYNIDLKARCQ

Turning to `O=C(CBr)c1ccc(Br)cc1` [Bromphenacyl bromide], at phospholipase A2, the “inhibition of phospholipase A2” value was “inhibit phospholipase A2 by acylating a histadine residue”.
Take `CO[C@]1(c2ccccc2C)CC[C@@H](NCCCC(=O)c2ccc(F)cc2)CC1` [C, Butyrophenone, 4'-fluoro-4-[(t-4-methoxy-4-o-tolylcyclohexyl)-amino]-, hydrochloride]: the IC50 is 196 µM in test [1], 301 µM in [2], 11.8 µM in test [3] and 404 µM in test [4]. The “erythema score, 1 hour” value with UV induced erythema (intraperitoneal, 23-25.2 mg/kg given 30 min. before UV, control 12) was 8; with UV induced erythema (subcutaneous, 60.9-66.1 mg/kg given 30 min. before UV, control 17), 10. For the same compound, the “erythema score, 2 hours” value in the test on UV induced erythema (intraperitoneal, 23-25.2 mg/kg given 30 min. before UV, control 18) worked out at 13; in the test with UV induced erythema (subcutaneous, 60.9-66.1 mg/kg given 30 min. before UV, control 23), 11. In addition, the “erythema score, 3 hours” value was 12 with UV induced erythema (intraperitoneal, 23-25.2 mg/kg given 30 min. before UV, control 24) and 9 in the test with UV induced erythema (subcutaneous, 60.9-66.1 mg/kg given 30 min. before UV, control 29). Also, the “erythema score, 4 hours” value was 12 in the test on UV induced erythema (intraperitoneal, 23-25.2 mg/kg given 30 min. before UV, control 30) and 10 with UV induced erythema (subcutaneous, 60.9-66.1 mg/kg given 30 min. before UV, control 34). In addition, the “erythema score, 24 hours” value in the test on UV induced erythema (intraperitoneal, 23-25.2 mg/kg given 30 min. before UV, control 50) turned out to be 27; with UV induced erythema (subcutaneous, 60.9-66.1 mg/kg given 30 min. before UV, control 56), 40. Also, the “erythema score, (After 4 hours) Total Points” value is on record as 45 in the test on UV induced erythema (intraperitoneal, 23-25.2 mg/kg, control 78) and 39 in the test with UV induced erythema (subcutaneous, 60.9-66.1 mg/kg, control 103). For the same compound, the “erythema score, (After 24 hours) Total Points” value was determined as 72 in the test on UV induced erythema (intraperitoneal, 23-25.2 mg/kg, control 128) and 79 in the test with UV induced erythema (subcutaneous, 60.9-66.1 mg/kg, control 158).
On to `COc1ccc2c(c1)c(CC(=O)O)c(C)n2C(=O)c1ccc(Cl)cc1` [indomethacin, Indomethacin], for which the “inhibition of phospholipase A2” value is “inactive” in [5], “inactive” in test [6], “inhibit phospholipase A2 of rabbit polymorphonuclear leukocytes in dose dependent fashion” in test [7] and “inactive” in test [8].
For `CCN(CC)CCCC(C)Nc1c2ccc(Cl)cc2nc2ccc(OC)cc12` (stereo not drawn) [mepacrine], the “inhibition of phospholipase A2” value in test [9] was “inhibits the activity of phospholipase A2”.
